Data taken from ChEMBL document CHEMBL1201862, “PubChem BioAssay data set” (2004).
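Test compounds were applied to cells in 96-well plates for 48 hours at 5 doses. GI50 marks 50% less growth.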 Activity calls are given as the source filed them. No stated cut-off is given here; in the data, active = GI50 up to about 1.1 µM and inactive = higher.

Assays:
Assay in all cases: NCI anticancer screen, dose series, 48 h
CAKI-1 = test system: CAKI-1
COLO 205 = test system: COLO 205
EKVX = test system: EKVX
HOP-62 = test system: HOP-62
Hs-578T = test system: Hs-578T
K562 = test system: K562
M14 = test system: M14
MDA-N = test system: MDA-N
MOLT-4 = test system: MOLT-4
Malme-3M = test system: Malme-3M
NCI-H460 = test system: NCI-H460
NCI/ADR-RES = test system: NCI/ADR-RES
OVCAR-5 = test system: OVCAR-5
SF-268 = test system: SF-268
SK-MEL-28 = test system: SK-MEL-28
SK-MEL-2 = test system: SK-MEL-2
SW-620 = test system: SW-620
T47D = test system: T47D
OVCAR-4 = test system: OVCAR-4
SK-OV-3 = test system: SK-OV-3

| Structure (SMILES) | GI50 (CAKI-1) | GI50 (COLO 205) | GI50 (EKVX) | GI50 (HOP-62) | GI50 (Hs-578T) | GI50 (K562) | GI50 (M14) | GI50 (MDA-N) | GI50 (MOLT-4) | GI50 (Malme-3M) | GI50 (NCI-H460) | GI50 (NCI/ADR-RES) | GI50 (OVCAR-5) | GI50 (SF-268) | GI50 (SK-MEL-28) | GI50 (SK-MEL-2) | GI50 (SW-620) | GI50 (T47D) | GI50 (OVCAR-4) | GI50 (SK-OV-3) |
| --- | --- | --- | --- | --- | --- | --- | --- | --- | --- | --- | --- | --- | --- | --- | --- | --- | --- | --- | --- | --- |
| NC(Cc1ccccc1)C(=O)OCN1C(=O)C2C3C=CC(C2C1=O)C1C(=O)N(COC(=O)C(N)Cc2ccccc2)C(=O)C31 (stereo not drawn) | > 100 µM (inactive) | 75.9 µM (inactive) | > 100 µM (inactive) | > 100 µM (inactive) | > 100 µM (inactive) | 28.5 µM (inactive) | 92 µM (inactive) | > 100 µM (inactive) | 22.4 µM (inactive) | 17.2 µM (inactive) | 67.9 µM (inactive) | > 100 µM (inactive) | > 100 µM (inactive) | > 100 µM (inactive) | 67.6 µM (inactive) | 22.6 µM (inactive) | 28.8 µM (inactive) | > 100 µM (inactive) |  |  |
| COc1c(O)c(OC)c(C(=O)/C=C/c2ccccc2)c(O)c1OC [PEDICIN] | 56.1 µM (inactive) | 41.7 µM (inactive) | 23.1 µM (inactive) |  | 30.5 µM (inactive) | 40.6 µM (inactive) | 37.6 µM (inactive) | 20.9 µM (inactive) | 30.5 µM (inactive) | 22.8 µM (inactive) | 19.1 µM (inactive) | 18.2 µM (inactive) | 58.9 µM (inactive) | 29 µM (inactive) | 33.3 µM (inactive) | 24.9 µM (inactive) | 27.9 µM (inactive) | 20.9 µM (inactive) | 27.9 µM (inactive) | > 100 µM (inactive) |
| COc1cc(OC)c(OC)cc1/C=C/c1ccccn1 | > 10 µM (inactive) | > 10 µM (inactive) | > 10 µM (inactive) | > 10 µM (inactive) | > 10 µM (inactive) | > 10 µM (inactive) | > 10 µM (inactive) | > 10 µM (inactive) | > 10 µM (inactive) | > 10 µM (inactive) | > 10 µM (inactive) | > 10 µM (inactive) | > 10 µM (inactive) | > 10 µM (inactive) | > 10 µM (inactive) | > 10 µM (inactive) | > 10 µM (inactive) | > 10 µM (inactive) | > 10 µM (inactive) | > 10 µM (inactive) |
| COC(=O)N/N=C(\c1ccccc1)c1ccc(OC)cc1 | > 100 µM (inactive) | > 100 µM (inactive) | > 100 µM (inactive) |  | > 100 µM (inactive) | > 100 µM (inactive) | > 100 µM (inactive) | > 100 µM (inactive) | > 100 µM (inactive) | > 100 µM (inactive) | > 100 µM (inactive) | > 100 µM (inactive) | > 100 µM (inactive) | > 100 µM (inactive) | > 100 µM (inactive) | > 100 µM (inactive) | > 100 µM (inactive) | > 100 µM (inactive) | > 100 µM (inactive) | > 100 µM (inactive) |
| S=C(N/N=C\C=N/NC(=S)N1CCCCC1)N1CCCCC1 | 0.619 µM (active) | 0.592 µM (active) | 0.515 µM (active) | 0.203 µM (active) | 0.879 µM (active) | 0.547 µM (active) | 0.208 µM (active) | > 26.1 µM (inactive) |  | 0.321 µM (active) | < 0.0151 µM (active) | 0.267 µM (active) | > 29.3 µM (inactive) | 0.231 µM (active) | 0.682 µM (active) |  | 0.0977 µM (active) | 0.287 µM (active) |  | 0.692 µM (active) |
| Cc1ccc(-n2nncc2[Si](C)(C)C)s1 | > 100 µM (inactive) | > 100 µM (inactive) |  |  | > 100 µM (inactive) | > 100 µM (inactive) | > 100 µM (inactive) | > 100 µM (inactive) |  | > 100 µM (inactive) | > 100 µM (inactive) | > 100 µM (inactive) | > 100 µM (inactive) | > 100 µM (inactive) | > 100 µM (inactive) | > 100 µM (inactive) | > 100 µM (inactive) | > 100 µM (inactive) | > 100 µM (inactive) | > 100 µM (inactive) |
| COc1ccc(OC2OC(CO)C(O)C(O)C2O)cc1 (stereo not drawn) | > 100 µM (inactive) | > 100 µM (inactive) | > 100 µM (inactive) | > 100 µM (inactive) | > 100 µM (inactive) | > 100 µM (inactive) | > 100 µM (inactive) | > 100 µM (inactive) | > 100 µM (inactive) | > 100 µM (inactive) | > 100 µM (inactive) | > 100 µM (inactive) | > 100 µM (inactive) | > 100 µM (inactive) | > 100 µM (inactive) | > 100 µM (inactive) | > 100 µM (inactive) | > 100 µM (inactive) |  | > 100 µM (inactive) |
| Cc1c(C(=O)O)c2cc3ccccc3cc2c(=O)n1C |  |  | > 10 µM (inactive) |  | > 10 µM (inactive) |  | > 10 µM (inactive) | > 10 µM (inactive) |  | > 10 µM (inactive) | > 10 µM (inactive) | > 10 µM (inactive) | > 10 µM (inactive) | > 10 µM (inactive) |  | > 10 µM (inactive) | > 10 µM (inactive) | > 10 µM (inactive) | > 10 µM (inactive) | > 10 µM (inactive) |
